Experiment [1] relates to LPS-induced expression of TNF-α in rat blood. Description: In vitro effect of the compound on LPS-induced expression of TNF-α in rat blood (ELISA). Type of experiment: cell-based, Sprague Dawley rats. Further details: key to TNF-α inhibitory ratio: 80% ≥ + > 60%; ++ > 80%; — N/A. Conditions: final compound concentration 100 μM, 5 hours, plasma TNF-α by ELISA; for inhibition at 100 µM: read-out: TNF-α inhibitory ratio. The text has this:
Experimental Example 2: In Vitro Evaluation of the Effect of the Compound on LPS-Induced Expression of TNF-α in Rat Blood
Experimental Objectives: To detect in vitro the effect of the test compound on LPS-induced expression of TNF-α in rat blood and evaluate the inhibitory effect of the compound on LPS-induced expression of TNF-α in rat blood.
Sprague Dawley rats (male, 210-260 g, 8-10 weeks old, Shanghai Slack)
Rat TNF-alpha Quantikine ELISA Kit (R & D, #SRTA00)
A solution of the test compound with a concentration of 1 mM was prepared and 40 μL (final compound concentration was 100 μM) was added to a 48-well cell culture plate. Rats were anesthetized with isoflurane and blood was collected from the heart (heparin anticoagulation). The blood was added to the 48-well cell plate to which the test compound has been added, with 320 μL per well. The 48-well plate was placed in a cell incubator, incubated for 30 minutes and then removed, added with 40 μL LPS solution (100 μg/mL), mixed and placed in the incubator to continue the incubation. 5 hours later, the 48-well plate was removed and the blood sample was transferred to a 1.5 mL centrifuge tube and centrifuged in a centrifuge (4,500 rpm, 4° C., 5 minutes). The plasma was separated from the supernatant, frozen quickly after packing and stored in −80° C. refrigerator. The next day the R&D ELISA kit was used to measure TNF-α levels in plasma samples according to the instructions of the kit.

Experiment [2] concerns the target T1, Full length human PDE2A protease (Homo sapiens, UniProt O00408).
T1 construct: Full length human PDE2A protease; GST (N); host or cells: insect Sf9 cells (baculovirus)
In words: In vitro evaluation of PDE2 phosphodiesterase inhibitory activity (Transcreener AMP2/GMP2 fluorescence polarization). Type of experiment: biochemical. How it is done: In Vitro Evaluation of PDE2 Phosphodiesterase Inhibitory Activity Experimental objectives: To detect the concentration of AMP/GMP produced in the reaction system by measuring the fluorescence intensity of the fluorescent dye AlexaFluor 633 substituted on AMP/GMP antibody and to calculate the PDE2 phosphodiesterase inhibitory IC50 value of the test compound. Test buffer solution: 10 mM Tris-HCl, pH 7.5, 5 mM MgCl2, 0.01% Brij 35, 1 mM DTT, and 1% DMSO. Enzyme: Full length human PDE2A protease expressed and recombined in insect Sf9 cells with baculovirus using N-terminal GST tag […] Transcreener® AMP^2/GMP^2 antibody, AMP2/GMP2 AlexaFluor 633 fluorescent dye The enzyme solution was prepared with freshly prepared buffer solution and then added to the reaction wells. The DMSO solution of the test compound was added by Echo550 non-contact nanoscale sonicate pipetting system and preincubated for 10 minutes at room temperature. The reaction was initiated by addition of substrate (1 μM cGMP) and allowed to react for one hour at room temperature. The detection system (Transcreener® AMP^2/GMP^2 antibody, AMP2/GMP2 AlexaFluor 633 fluorescent dye) was then added and reacted for 90 minutes at room temperature before fluorescence polarization was detected using Ex/Em 620/688. The intensity of fluorescence polarization was converted to nM concentration by the AMP/GMP standard curve and then relative inhibition of enzyme activity relative to DMSO blank was calculated. IC50 values and curves were calculated using the Prism software package (GraphPad Software, San Diego Calif., USA)
In general terms: Fluorescence polarisation rises when a labelled molecule tumbles more slowly, as on binding a larger partner.

Setting [3] is: recombinant full length human PDE2A, substrate 1 μM cGMP, 1 hour at room temperature, read-out: PDE2 phosphodiesterase inhibitory activity.

Where two headings read alike, the source gives them in different places. Some results are limits rather than exact numbers.

This note sets out measurements from patent US10278973B2, “Hydroxyl purine compounds and use thereof” (GUANGDONG RAYNOVENT BIOTECH CO., LTD., priority 2015, dated 2019).

T1 sequence (O00408 whole entry): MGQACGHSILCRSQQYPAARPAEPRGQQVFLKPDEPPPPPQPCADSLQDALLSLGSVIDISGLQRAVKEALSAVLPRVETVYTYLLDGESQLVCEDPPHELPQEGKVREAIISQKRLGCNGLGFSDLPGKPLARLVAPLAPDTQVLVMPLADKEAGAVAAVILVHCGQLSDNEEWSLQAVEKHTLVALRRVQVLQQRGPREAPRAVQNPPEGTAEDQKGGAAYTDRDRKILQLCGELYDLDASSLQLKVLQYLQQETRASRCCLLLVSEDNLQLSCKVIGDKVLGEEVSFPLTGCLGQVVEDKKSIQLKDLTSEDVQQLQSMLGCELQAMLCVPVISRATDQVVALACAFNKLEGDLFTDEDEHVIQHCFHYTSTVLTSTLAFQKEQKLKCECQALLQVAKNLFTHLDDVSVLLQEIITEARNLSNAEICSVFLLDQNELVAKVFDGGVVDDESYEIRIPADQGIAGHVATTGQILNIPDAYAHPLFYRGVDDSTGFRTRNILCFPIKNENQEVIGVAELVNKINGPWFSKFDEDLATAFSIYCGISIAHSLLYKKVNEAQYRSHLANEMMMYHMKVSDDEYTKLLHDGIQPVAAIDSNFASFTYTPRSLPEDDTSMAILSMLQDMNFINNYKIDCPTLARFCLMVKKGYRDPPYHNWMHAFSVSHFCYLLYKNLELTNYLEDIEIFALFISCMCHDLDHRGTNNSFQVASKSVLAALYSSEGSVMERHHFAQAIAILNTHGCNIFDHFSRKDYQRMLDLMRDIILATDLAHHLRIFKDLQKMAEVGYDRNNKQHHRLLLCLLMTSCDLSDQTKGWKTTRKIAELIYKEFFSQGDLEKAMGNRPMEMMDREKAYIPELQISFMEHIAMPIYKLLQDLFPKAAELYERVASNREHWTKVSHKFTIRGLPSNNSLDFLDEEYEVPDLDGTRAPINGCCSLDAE

Turning to `Cn1cnc2c1c(=O)n(CCCN1CCCC1=O)c(=O)n2C` [Example 3, 3,7-Dimethyl-1-(3-(2-oxopyrrolidin-1-yl)propyl)-1H-purine-2,6(3H,7H)-dione], the TNF-α inhibitory ratio result in experiment [1] was “—”.

As for `CC(C)c1cc(Cn2c(=O)c3c(ncn3C)n(C)c2=O)on1` [Example 15, 1-((3-Isopropylisoxazol-5-yl)methyl)-3,7-dimethyl-1H-purine-2,6(3H,7H)-dione], the IC50 in experiment [2] (setting [3]) was 1 to 10 µM. Moreover, in experiment [1], the inhibition at 100 µM lay within 60 to 80%.

On to `Cc1cc(CCCCn2c(=O)c3c(ncn3C)n(C)c2=O)on1` [Example 19, 3,7-Dimethyl-1-(4-(3-methylisoxazol-5-yl)butyl)-1H-purine-2,6(3H,7H)-dione], for which the IC50 in experiment [2] is 10 to 50 µM. In addition, in experiment [1], the TNF-α inhibitory ratio entry is reported as “—”.

For the compound `Cc1noc(C)c1Cn1c(=O)c2c(ncn2C)n(C)c1=O` [Example 25, 1-((3,5-Dimethylisoxazol-4-yl)methyl)-3,7-dimethyl-1H-purine-2,6(3H,7H)-dione], in experiment [2] (setting [3]), the IC50 lay in the range of 10 to 50 µM. Also, the TNF-α inhibitory ratio entry in experiment [1] is given as “—”.

Turning to `Cc1cc(C2CCC(n3c(=O)c4c(ncn4C)n(C)c3=O)CC2)on1` (centres unmarked) [Example 27, 3,7-Dimethyl-1-(4-(3-methylisoxazol-5-yl)cyclohexyl)-1H-purine-2,6(3H,7H)-dione], in experiment [2] (setting [3]), the IC50 fell in the range of 10 to 50 µM. In addition, the TNF-α inhibitory ratio result in experiment [1] is recorded as “—”.

Consider `Cc1nc(C)c(CCn2c(=O)c3c(ncn3C)n(C)c2=O)s1` [Example 31, 1-(2-(2,4-Dimethylthiazol-5-yl)ethyl)-3,7-dimethyl-1H-purine-2,6(3H,7H)-dione], for which, in experiment [2] (setting [3]), the IC50 was 1 to 10 µM. Further, the TNF-α inhibitory ratio result in experiment [1] is on record as “—”.

In the case of `CC(C)c1cc(Cn2c(=O)c3c(ncn3CC3CC3)n(C)c2=O)on1` [Example 59, 7-(Cyclopropylmethyl)-1-((3-isopropylisoxazol-5-yl)methyl)-3-methyl-1H-purine-2,6(3H,7H)-dione], the IC50 in experiment [2] (setting [3]) was in the range of 1 to 10 µM. In addition, the inhibition at 100 µM in experiment [1] was over 80%.

`Cc1cc(CCCCn2c(=O)c3cc[nH]c3n(C)c2=O)on1` [Example 66, 1-Methyl-3-(4-(3-methylisoxazol-5-yl)butyl)-1H-pyrrolo[2,3-d]pyrimidine-2,4(3H,7H)-dione]: the IC50 in experiment [2] (setting [3]) fell in the range of 10 to 50 µM.

Turning to `Cc1cc(CCCCn2c(=O)c3ccn(C)c3n(C)c2=O)on1` [Example 67, 1,7-Dimethyl-3-(4-(3-methylisoxazol-5-yl)butyl)-1H-pyrrolo[2,3-d]pyrimidine-2,4(3H,7H)-dione], the IC50 in experiment [2] (setting [3]) was in the range of 10 to 50 µM.

Turning to `Cc1cc(CCCCn2c(=O)c3nn(C)cc3n(C)c2=O)on1` [Example 69, 2,4-Dimethyl-6-[4-(3-methylisoxazol-5-yl)-butyl]-2,4-dihydro-pyrazolo[4,3-d]pyrimidine-5,7-dione], the IC50 in experiment [2] (setting [3]) lay in the range of 10 to 50 µM.

With `Cc1cc(CCCCn2c(=O)c3c(cnn3CC(F)(F)F)n(C)c2=O)on1` [Example 75, 4-Methyl-6-(4-(3-methylisoxazol-5-yl)butyl)-1-(2,2,2-trifluoroethyl)-pyrazolo[4,3-d]pyrimidine-5,7-dione], in experiment [2] (setting [3]), the IC50 was 10 to 50 µM.

For the compound `Cc1cc(CCCCn2c(=O)c3c(cnn3CC3CC3)n(C)c2=O)on1` [Example 81, 1-(Cyclopropylmethyl)-4-methyl-6-(4-(3-methylisoxazol-5-yl)butyl)-pyrazolo[4,3-d]pyrimidin-5,7-dione], the IC50 in experiment [2] (setting [3]) was 10 to 50 µM.

`Cc1cc(CCCCn2cnn3cnc(CC(C)C)c3c2=O)on1` [Example 82, 5-isobutyl-3-(4-(3-methylisoxazol-5-yl)butyl)imidazo[5,1-F] [1,2,4]triazin-4-one]: the IC50 in experiment [2] (setting [3]) was 1 to 10 µM. In addition, in experiment [1], the inhibition at 100 µM lay in the range of 60 to 80%.

In the case of `Cc1cc(CCCCn2c(=O)c3ccccc3n(C)c2=O)on1` [Example 83, 1-Methyl-3-(4-(3-methylisoxazol-5-yl)butyl)quinazoline-2,4(1H,3H)-dione], the IC50 in experiment [2] (setting [3]) is 10 to 50 µM.

With `Cc1cc(CCCCn2c(=O)c3cccnc3n(C)c2=O)on1` [Example 89, 1-Methyl-3-[4-(3-methylisoxazol-5-yl)butyl]pyrido[2,3-d]pyrimidine-2,4-dione], in experiment [2] (setting [3]), the IC50 was in the range of 10 to 50 µM. Also, in experiment [1], the inhibition at 100 µM is over 80%.
